# Source: PMC8949075, “Evaluation of Two Novel Hydantoin Derivatives Using Reconstructed Human Skin Model Episkin^TM: Perspectives for Application as Potential Sunscreen Agents” (Molecules, 2022)
# Columns and labels:
# [1] = Episkin phototoxicity test (UVA 50 J/cm^2; MTT viability, Il-1α release); format: cell-based, human; settings: human; 0.5 mM, UVA 50 J/cm^2; read-out: tissue viability after UVA exposure compared to non-irradiated epidermis
# Method: (§1) The MM was provided by the manufacturer.
# Compounds JH3 and JH10 (final concentrations of 0.5 and 1 mM) solubilized in ethanol (final concentration of 1% in water) were applied topically on the tissue surface. Chlorpromazine (CPZ, chlorpromazine hydrochloride, C17H19ClN2S·HCl, CAS number: 69-09-0, molecular weight: […], purity: meets USP testing specifications, Sigma-Aldrich, Darmstadt, Germany) (final concentration of 0.5 mM, based on literature data) was used as a positive control, whereas solvent alone served as a negative control.
# Duplicate plates were prepared for UVA and dark (controls) exposure purposes. After the treatment period of 2 h, the excess test compound was removed from each well, and the tissues were exposed to UVA at a non-cytotoxic dose of 50 J/cm^2 ([…] at 250 W/m^2) with a solar light simulator equipped with a window glass filter and ID65 filter (Suntest CPS+, Atlas, Linsengericht, Germany). The emitted spectrum contained both UV and visible outputs with a UV cut-on of approx. 320 nm and corresponded to ID65 per ISO 10,977 [74]. The irradiance level between 320 and 400 nm was approximated by the following equation: W/m^2 (320–400 nm) = W/m^2 (300–800 nm) ÷ 11.5. In parallel, the non-irradiated treated tissues were placed in the dark under the same conditions. […] Next, cell viability was assessed using an MTT conversion test and the culture media aliquots were kept frozen (−20 °C) for Il-1α measurement (see 2.3.2. The Episkin^TM skin irritation test method section).
# CHO-K1 cells = experiment: In vitro micronucleus assay; format: cell-based, Chinese hamster
# Method: The CHO-K1 cells were seeded in 6-well plates at a density of 1 × 10^6 cells/well and incubated overnight at 37 °C, 5% CO2 atmosphere. […] The test compounds and 4MBC were dissolved in DMSO (solvent, final concentration 0.1%) and ethanol (co-solvent, final concentration 1%). After 24 h of treatment, the medium was removed, and the cells were rinsed with PBS. Then, fresh medium containing cytochalasin B (CytB; Sigma Aldrich, Darmstadt, Germany) (4.5 µg/mL) was added and incubation was continued for the next 24 h.
# After the incubation period, the cells were washed with fresh medium, detached by trypsinization, and centrifuged. The supernatant was discarded and 5 mL of 1% ice-cold sodium citrate (Chempur, Piekary Śląskie, Poland) was added to the cell pellet, which was then gently resuspended. After 15 s, 5 mL of freshly prepared fixative solution (methanol/acetic acid, 3:1) and 4 drops of formaldehyde were added. The cell suspension was centrifuged (5 min, 1000 rpm), the supernatant was discarded again, and the pellet was fixed in fixative mixture two more times, without formaldehyde. After the third fixation, part of the supernatant was removed, and around 1 mL of the supernatant was retained to resuspend the cells. The suspension was then dripped onto clean, previously frozen, glass slides to dry. After air-drying, the slides were stained with Giemsa dye (1:20 in phosphate buffer) for 5 min [56, 78, 79].
# One thousand binucleated cells per slide with intact nuclei of equal size, similar pattern of cytoplasm staining, intact membrane, and distinguishable from adjacent cells, without apoptotic and necrotic cells were analyzed. Only the micronuclei with the same morphology and color of the main nuclei, with 1/16 to 1/3 of the major nucleus diameter, unrefringent and not overlapping or connected to the main nuclei were counted. Moreover, the presence of dicentric bridges (DB) and nuclear buds (NB) in the binucleated cells was analyzed. The nuclear division index (NDI) was calculated using the following formula: [(1 × MOC) + (2 × BC) + (3 × MUC)]/N, where MOC is the number of mononuclear cells, BC is the number of binuclear cells, MUC represents the number of multinuclear cells, and N is the total number of scored cells. The micronucleus incidence was presented as a number of micronuclei per 1000 examined binuclear cells. The experiment was conducted two times with three repetitions for each condition.
# [2] = cited from earlier work
# [3] = system: Episkin^TM reconstructed human epidermis; experiment: Episkin skin permeation test (finite dose, OECD 428); format: in vitro ADME; settings: 2% formulation; for absorbed amount detected in the RF (of the applied dose): 24 h exposure, 10 mg/cm^2 finite dose; for detection in the receptor fluid over time: sampling 0-6 and 24 h; for detection in the receptor fluid over time / absorption rate (amount in receptor fluid): 10 mg/cm^2; for absorption rate (amount in receptor fluid): after 24 h
# Method: as §1
# (§2) The receptor fluid composition was based on the pilot experiments.
# (§3) The formulations of the test compounds (JH3 and JH10) and commercial UV filters were applied onto the skin surface in the donor compartment in a net dose of 10 mg/cm^2 (finite dose application) using disposable flexible loops. To quantify the dose of the formulation applied on the top of the Episkin^TM model, the loops were weighed, filled with approximately 11 mg of formulation, and then reweighed. The difference in weight was used as the amount of formulation applied. Commercial UV filters such as BP3, 4MBC, and AVO were used as reference standards. The filters were obtained from Sigma-Aldrich, Darmstadt, Germany.
# (§4) The plate with tissues was embedded with parafilm and incubated at specific time points at 32 °C. As the passive diffusion of chemicals (and therefore their skin absorption) is affected by temperature, the diffusion chamber and skin were maintained at a constant temperature close to normal skin temperature of 32 ± 1 °C [19, 23, 30, 32]. At fixed time points (0, 1, 2, 3, 4, 5, 6, and 24 h), aliquots of the receptor fluid (0.5 mL) were collected from the receptor compartment and immediately replaced with fresh fluid. After 24 h the entire receptor fluid was collected, and the skin surface was washed thoroughly with cotton buds impregnated in methanol (5 times). The tissues were removed from the inserts and both the donor and receptor compartments were washed separately with methanol. The samples were stored at −20 °C until chemical analysis.
# (§5) All samples were spiked with 25 µL of pentoxifylline (PTX, Sigma-Aldrich, Darmstadt, Germany) (final concentration of 20 µM) used as an internal standard prior to extraction. The samples were analyzed using ultra high-pressure liquid chromatography coupled with mass spectrometry (UHPLC/MS; Waters Corporation, Milford, MA, USA). Quantification was based on peak area and calculated from standard calibration curves of the compound adjusted by the internal standard area. The assay was in agreement with the Organization for Economic Co-operation and Development (OECD) guideline 428 [19].
# [4] = as above; format: in vitro ADME, human; settings: human; 24 h exposure, 10 mg/cm^2 finite dose, 2% formulation; read-out: recovery in the epidermis (of the applied dose)
# Method: as §1, §2, §3, §4, §5
# [5] = CHO-K1 cytotoxicity assay (MTT); format: cell-based; settings: Chinese hamster, CHO-K1 cells, concentrations ranging from 1 to 10 µM
# Method: The Chinese hamster ovary CHO-K1 cell line was obtained from the American Type Culture Collection (ATCC CCL-61). The CHO-K1 cell line was cultured in a humidified incubator at 37 °C with 5% CO2, in F-12K Medium (Kaighn’s Modification of Ham’s F-12 Medium) (ATCC) supplemented with 10% fetal bovine serum (FBS; Gibco, Waltham, MA, USA) and antibiotics (1% streptomycin/penicillin salts mixture, Sigma–Aldrich, Darmstadt, Germany).
# The cells were seeded at a density of 6 × 10^3 on 96-well plates. […] Test compounds and 4MBC were dissolved in DMSO (solvent, final concentration 0.1%) and ethanol (co-solvent, final concentration 1%). At the end of the incubation period, 10 µL of MTT reagent was added to each well. After 4 h incubation (37 °C, 5% CO2), the medium was discarded, and the formazan produced in the cells appeared as dark crystals in the bottom of the wells. Next, pure DMSO was added to each well. The optical density data of converted dye was measured at 570 nm (A570) on microplate reader. […] The experiment was conducted two times with three repetitions for each condition.
# [6] = parameters: method as in earlier work; settings: cited from earlier work
# [7] = parameters: method as in PMID 26674115; settings: cited from earlier work
# [8] = system: Episkin^TM reconstructed human epidermis; experiment: Episkin skin irritation test (MTT viability, Il-1α release; OECD 439); settings: 26 mg/cm^2 topical, 15 min exposure, 42 h post-incubation
# Source text: The Episkin^TM model (aged 13 days, large/1.07 cm^2 surface area) was provided by Episkin (Lyon, France). The Episkin^TM kit consists of 12 reconstructed epidermis units made of type I collagen matrix, representing the dermis, surfaced with a film of type IV collagen, upon which is laid a stratified and differentiated epidermis derived from human keratinocytes [17]. Upon receipt of the tissues, the culture inserts were removed from the agarose-nutrient solution and transferred into 12-well plates containing 2 mL of the maintenance medium (MM) per well. The MM was provided by the manufacturer. Tissues were then incubated for 24 h at 37 °C in a humidified atmosphere of 5% CO2 before use in the permeation, irritation, or phototoxicity experiments.
# Prior to the irritation experiments, the Episkin^TM inserts were washed with sterile PBS to remove traces of the MM and transferred into new 12-well plates containing 2 mL of fresh MM. […] Sodium dodecyl sulphate (SDS; Sigma-Aldrich, Darmstadt, Germany) (5% in water) and PBS were used as positive and negative controls, respectively. Both controls were applied topically (26 mg/cm^2). Samples were tested in two independent experiments using three tissues for each chemical, positive, or negative control.
# Then, the tissues were placed in new 12-well plates containing 2 mL of the MM per well and incubated for an additional 42 h at 37 °C in a humidified atmosphere of 5% CO2 as post-treatment incubation time. At the end of this period, the culture media of each tissue were collected and stored at −20 °C for Il-1α measurement.
# The cell viability was assessed by a subsequent incubation of the tissues for 3 h with freshly prepared 3-(4,5-dimethylthiazol-2-yl)-2,5-diphenyltetrazolium bromide (MTT; Sigma-Aldrich, Darmstadt, Germany) solution (0.3 mg/mL in assay medium (AM)) in a 12-well plate. Then, a biopsy of the epidermis was done using a puncher (Episkin, Lyon, France), and the precipitated formazan was extracted using 500 µL of acidified isopropanol (Chempur, Piekary Śląskie, Poland) (0.04 N HCl in isopropanol) for 48 h (4 °C). At the end of the extraction period, 200 µL of each sample were transferred to 96-well plates for absorbance measurements at 570 nm (A570) [70, 71, 72, 73]. […] Viability (percent of control) was determined by dividing A570 of experimental wells by A570 of control wells × 100%. The test substance was considered as an irritant when mean tissue viability was equal or less than 50% [16, 17].
# Il-1α measurement was conducted by a classic enzyme-linked immunosorbent assay (ELISA) technique (Cayman Chemical, Ann Arbor, MI, USA). Firstly, 100 µL of the samples were added into a 96-well ready to use microtiter plate (precoated with a monoclonal antibody specific for Il-1α (Il-1α capture antibody). Secondly, 100 µL of an acetylcholinesterase:Fab’ Conjugate (AChE:Fab’) was added to each well. The plate was covered with plastic film and incubated overnight at 4 °C. At the end of the incubation period the contents of each well were removed and rinsed five times with wash buffer. Next, 200 µL of Ellman’s reagent (containing the substrate for AChE) was added to each well, the plate was covered with plastic film and developed in the dark using an orbital shaker. The absorbance of the wells was measured at 410 nm. Il-1α concentrations were then calculated using the standard curve.
compound,measurement,setting,value
"CN(C)CCCN1c2ccccc2Sc2ccc(Cl)cc21 [CPZ, Chlorpromazine, reference compound]","viability at 2 h, 0.5 mM",[1],~40%
"Cc1ccc(C=C2C(=O)C3(C)CCC2C3(C)C)cc1 (stereo not drawn) [4MBC, 3-(4-methylbenzylidene) camphor, reference compound]",DB (dicentric bridges),"CHO-K1 cells; Chinese hamster, 24 h, 1 µM",4.6
same,MN (micronuclei),"CHO-K1 cells; Chinese hamster, 24 h, 1 µM",8.3 ± 2.9
same,NB (nuclear buds),"CHO-K1 cells; Chinese hamster, 24 h, 1 µM",3.7
same,NDI (nuclear division index),"CHO-K1 cells; Chinese hamster, 24 h, 1 µM",1.35
same,DB (dicentric bridges),"CHO-K1 cells; Chinese hamster, 24 h, 5 µM",4.5
same,MN (micronuclei),"CHO-K1 cells; Chinese hamster, 24 h, 5 µM",9.0 ± 3.4
same,NB (nuclear buds),"CHO-K1 cells; Chinese hamster, 24 h, 5 µM",3.5
same,NDI (nuclear division index),"CHO-K1 cells; Chinese hamster, 24 h, 5 µM",1.30
same,DB (dicentric bridges),"CHO-K1 cells; Chinese hamster, 24 h, 10 µM",3.4
same,MN (micronuclei),"CHO-K1 cells; Chinese hamster, 24 h, 10 µM",7.3 ± 4.4
same,NB (nuclear buds),"CHO-K1 cells; Chinese hamster, 24 h, 10 µM",4.9
same,NDI (nuclear division index),"CHO-K1 cells; Chinese hamster, 24 h, 10 µM",1.39
same,bacterial mutation (Ames) assay result,[2],negative
same,absorbed amount detected in the RF (of the applied dose),[3],3%
same,detection in the receptor fluid over time,[3],detected only after 24 h exposure
same,"recovery at 24 h, 2 % in formulation",[4],28%
same,viability at 24 h,[5],> 75%
same,in vitro chromosomal aberration test result,[6],negative
same,log P,[7],4.95
"CO[C@@]12[C@H](COC(N)=O)C3=C(C(=O)C(C)=C(N)C3=O)N1C[C@@H]1N[C@@H]12 [MMC, Mitomycin C, reference compound]",increase in the number of MNs vs normal and vehicle control,CHO-K1 cells; 0.5 µg/mL,approximately 10 fold
same,increase in the number of NBs vs normal and vehicle control,CHO-K1 cells; 0.5 µg/mL,7 fold
same,MN (micronuclei),"CHO-K1 cells; 0.5 µg/mL (positive control), count in 1000 binucleated cells per slide",88.5 ± 6.5
"COc1ccc(C(=O)c2ccccc2)c(O)c1 [BP3, benzophenone-3]",absorbed amount detected in the RF (of the applied dose),[3],12%
same,absorption rate (amount in receptor fluid),[3],20 µg/cm^2
same,detection in the receptor fluid over time,[3],clearly detectable after the third hour
same,"recovery at 24 h, 2 % in formulation",[4],18%
"COc1ccc(C(=O)CC(=O)c2ccc(C(C)(C)C)cc2)cc1 [AVO, avobenzone]",absorbed amount detected in the RF (of the applied dose),[3],about 1%
same,absorption rate (amount in receptor fluid),[3],3 µg/cm^2
same,"recovery at 24 h, 2 % in formulation",[4],16%
same,log P,[7],4.51
"CCCCCCCCCCCCOS(=O)(=O)[O-].[Na+] [SDS, Sodium dodecyl sulphate, reference compound]",Il-1α release,[8],96 pg/mL
same,mean tissue viability,[8]; vs negative control,approximately 10%
